Experimental data published in PMC6652808, “The Inhibitory Effect of GlmU Acetyltransferase Inhibitor TPSA on Mycobacterium tuberculosis May Be Affected Due to Its Methylation by Methyltransferase Rv0560c” (Frontiers in Cellular and Infection Microbiology, 2019).

Biological target: GlmU (Mycobacterium tuberculosis, UniProt P9WMN3)
Assay: […]; double reciprocal plots; […]
Type: biochemical

GlmU, sequence (P9WMN3 2-495): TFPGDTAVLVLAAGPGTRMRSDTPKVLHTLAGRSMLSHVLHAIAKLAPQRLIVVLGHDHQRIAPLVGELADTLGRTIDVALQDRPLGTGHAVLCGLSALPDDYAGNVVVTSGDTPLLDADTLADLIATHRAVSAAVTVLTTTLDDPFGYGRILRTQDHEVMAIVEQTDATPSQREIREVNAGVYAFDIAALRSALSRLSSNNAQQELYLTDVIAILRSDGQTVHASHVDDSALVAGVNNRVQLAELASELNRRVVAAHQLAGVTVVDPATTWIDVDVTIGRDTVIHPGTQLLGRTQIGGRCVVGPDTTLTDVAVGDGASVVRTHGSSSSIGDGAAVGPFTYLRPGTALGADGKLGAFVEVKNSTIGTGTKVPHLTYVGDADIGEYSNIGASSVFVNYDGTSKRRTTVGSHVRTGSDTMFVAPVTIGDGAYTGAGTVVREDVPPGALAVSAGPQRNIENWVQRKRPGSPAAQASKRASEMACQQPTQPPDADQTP

Question: `O=C(O)Cc1ccc(C(=O)CSc2nccc(-c3cccs3)n2)s1` [TPSA, 2-[5-(2-{[4-(2-thienyl)-2-pyrimidinyl]sulfanyl}acetyl)-2-thienyl]acetic acid] was tested. Which IC50 did it give?
Answer: Its IC50 is 5.3 ± 0.48 µM.
